Results published in patent US12440610B2, “Coated medical devices and methods of inhibiting implant-associated infections” (UNIVERSITY OF CINCINNATI, priority 2017, dated 2025).
“And” between values parts separate entries of the source, which are not always exact repeats. Identical values can stand only once.

Legend:
[1] = system: methicillin resistant S. aureus (MRSA); experiment: In vitro bacterial adherence and colonization of coated implants, MRSA; assay type: cell-based; conditions: 24 hours incubation; for reduction of MRSA adherent to PTFE in vitro: coated PTFE; for reduction of MRSA adherent to PTFE in vitro / reduction of MRSA adherent to titanium screws in vitro: vs vehicle-coated controls; for reduction of MRSA adherent to silk suture in vitro: coated silk suture, vs vehicle (100% ethanol)-coated controls; for reduction of MRSA adherent to titanium screws in vitro: coated titanium screws
Procedure: Small pieces of PTFE (5 mm×5 mm), silk suture (2 cm), and titanium screws antibiotic-coated and vehicle (100% ethanol)-coated, were prepared for analysis as in Example 1.2. Bacteria was prepared as in 2.3 and 1000 colony forming units (cfus) in 300 μL was placed in the wells of 96-well plates. The antibiotic-coated and vehicle-coated pieces were then immersed and incubated for 24 hours at 37° C., 95% humidity (n=15 per group). Pieces were then placed in 10 mL sterile PBS and bath sonicated for 10 minutes to release adherent bacteria. Bacteria were quantified by the plate dilution method.

[2] = system: P. aeruginosa (strain 762); experiment: In vitro bacterial adherence and colonization of coated implants, P. aeruginosa; assay type: cell-based; conditions: for reduction of P. aeruginosa adherent to PTFE in vitro / reduction of P. aeruginosa adherent to silk suture in vitro / reduction of P. aeruginosa adherent to titanium screws in vitro: 24 hours incubation, vs vehicle-coated controls; for reduction of P. aeruginosa adherent to silk suture in vitro: coated silk suture
Procedure: Bacteria was prepared as in 2.3 and 1000 colony forming units (cfus) in 300 μL was placed in the wells of 96-well plates. […] Pieces were then placed in 10 mL sterile PBS and bath sonicated for 10 minutes to release adherent bacteria. Bacteria were quantified by the plate dilution method.

[3] = physchem; conditions: 65 °C, organic solvent or mixture, thermodynamic from solid
Procedure: The process involved heating the ethanol to 65° C. and slowly adding the solid solute under bath sonication and manual agitation until the resulting solution was transparent. Dip coating was then carried out at room temperature immediately after removing the stock solutions from the heated water bath.
The reported solubility in the literature of the above antibiotics in ethanol are incompletely studied.

[4] = cited from earlier work; for reported solubility in ethanol/alcohol (in words): literature
[5] = system: methicillin resistant S. aureus (MRSA); experiment: Subcutaneous implant and infection of mice, MRSA colonization of implant; conditions: CF-1 mice, 2.5 million cfu, 3 days post infection; for reduction of MRSA colonization of PTFE in vivo: subcutaneous coated PTFE; for reduction of MRSA colonization of silk suture in vivo: subcutaneous coated silk suture; for reduction of MRSA colonization of titanium screws in vivo: subcutaneous coated titanium screws
Description: (§1) Intact 5 cm sections of PTFE graft, full 75 cm length of silk suture, and individual titanium screws were dip-coated into each antibiotic solution and immediately withdrawn at a rate of ˜200 mm/'s. Thin films of antibiotic were subsequently formed as the ethanol evaporated.
(§2) After the PTFE, silk suture, and titanium are withdrawn from the antibiotic stock solution, they were allowed to further dry overnight at ambient conditions at room temperature. Vehicle (100% ethanol)-coated pieces were prepared in an identical manner, substituting absolute ethanol for the antibiotic stock solutions. PTFE implants were then cut to 5 mm×5 mm pieces, and silk suture was cut to 2 cm length for use in vitro and in vivo. Titanium screws were not further manipulated prior to use in vitro and in vivo.
(§3) MRSA was obtained from the clinical microbiology lab of Shriner's Hospital for Children (Cincinnati, OH). […] P. aeruginosa was grown from frozen glycerol stock overnight on TSB agar plates. MRSA was grown overnight from frozen glycerol stock on TSB agar plates with 5% sheep's blood. […] Bacteria were then washed twice by centrifugation at 3000×g for 10 min and resuspension in 0.9% NaCl. The optical density of the suspended bacteria was determined at 550 nm light and final inoculating concentration calculated from standard curves specific to each strain. Bacteria remained in 0.9% NaCl for in viva testing but were placed back into TSB for in vitro testing.
(§4) CF-1 mice were anesthetized with 120 mg/kg ketamine/16 mg/kg xylazine injected intraperitoneally and their backs shaved with electric clippers. A 2 cm incision was made in the back and implants (5 mm×5 mm PTFE, 2 cm silk suture, or titanium screws) were placed subcutaneously (n=9 per group).
(§5) Mice were sacrificed 3 days post infection. The implant capsule was entered with sterile instruments and the implant was removed and placed in 10 mL of sterile PBS. […] The implants and tissue were placed in a bath sonicator for 10 min to release adherent bacteria. Bacteria were then quantified by the plate dilution method. The most concentrated solution plated for each sample was a 1:100 dilution.

[6] = system: P. aeruginosa (strain 762); experiment: Subcutaneous implant and infection of mice, P. aeruginosa colonization of implant; conditions: CF-1 mice, 2 million cfu, 3 days post infection; for reduction of P. aeruginosa colonization of PTFE in vivo: subcutaneous coated PTFE; for reduction of P. aeruginosa colonization of silk suture in vivo: subcutaneous coated silk suture; for reduction of P. aeruginosa colonization of titanium screws in vivo: subcutaneous coated titanium screws
Description: as §1, §2, §3, §4, §5

SMILES: C[C@H]1c2cccc(O)c2C(=O)C2=C(O)[C@]3(O)C(=O)C(C(N)=O)=C(O)[C@@H](N(C)C)[C@@H]3[C@@H](O)[C@@H]21 [Doxycycline, Doxycycline Hyclate]
- reduction of MRSA adherent to PTFE in vitro [1]: 5.7 log
- reduction of MRSA adherent to silk suture in vitro [1]: 5.2 log
- reduction of MRSA adherent to titanium screws in vitro [1]: 5.3 log
- reduction of MRSA adherent to titanium screws in vitro ([1]; listed as doxycycline): 5.2 log
- reduction of P. aeruginosa adherent to PTFE in vitro ([2]; coated PTFE): 5.5 log
- reduction of P. aeruginosa adherent to PTFE in vitro ([2]; coated PTFE, listed as doxycycline): 6.1 log
- reduction of P. aeruginosa adherent to silk suture in vitro [2]: 4.4 log
- reduction of P. aeruginosa adherent to silk suture in vitro ([2]; listed as doxycycline): 6.0 log
- reduction of P. aeruginosa adherent to titanium screws in vitro ([2]; coated titanium screws): 6.4 log
- solubility [3]: 41000 µg/mL and 80000 µM
- reported solubility in ethanol/alcohol (in words) [4]: sparingly soluble
- reduction of MRSA colonization of PTFE in vivo [5]: 4.6 log and 4.7 log
- reduction of MRSA colonization of silk suture in vivo [5]: 3.2 log and 2.1 log
- reduction of MRSA colonization of titanium screws in vivo [5]: 3.1 log and 3.0 log
- reduction of P. aeruginosa colonization of PTFE in vivo [6]: 4.4 log and 2.7 log
- reduction of P. aeruginosa colonization of silk suture in vivo [6]: 1.2 log and 1.1 log
- reduction of P. aeruginosa colonization of titanium screws in vivo [6]: 3.7 log and 2.8 log

SMILES: O=C(N[C@H](CO)[C@H](O)c1ccc([N+](=O)[O-])cc1)C(Cl)Cl [Chloramphenicol]
- reduction of MRSA adherent to PTFE in vitro [1]: 5.7 log
- reduction of MRSA adherent to silk suture in vitro [1]: 5.2 log
- reduction of MRSA adherent to titanium screws in vitro [1]: 5.3 log
- reduction of MRSA adherent to titanium screws in vitro ([1]; listed as chloramphenicol): 5.2 log
- reduction of MRSA colonization of PTFE in vivo [5]: 3.1 log and 2.3 log
- reduction of MRSA colonization of silk suture in vivo [5]: 1.2 log and 1.1 log
- reduction of MRSA colonization of titanium screws in vivo [5]: 2.2 log and 2.3 log

SMILES: CC[C@H]1OC(=O)[C@H](C)[C@@H](O[C@H]2C[C@@](C)(OC)[C@@H](O)[C@H](C)O2)[C@H](C)[C@@H](O[C@@H]2O[C@H](C)C[C@H](N(C)C)[C@H]2O)[C@](C)(O)C[C@@H](C)C(=O)[C@H](C)[C@@H](O)[C@]1(C)O [Erythromycin]
- reduction of MRSA adherent to PTFE in vitro [1]: 5.7 log and 4.5 log
- reduction of MRSA adherent to silk suture in vitro [1]: 5.2 log
- reduction of MRSA adherent to titanium screws in vitro [1]: 5.2 log and 5.3 log
- reduction of P. aeruginosa adherent to PTFE in vitro ([2]; coated PTFE): 5.8 log
- PA adherence to PTFE (in words) ([2]; coated PTFE, in vitro, p<0.05): significantly reduced
- reduction of P. aeruginosa adherent to silk suture in vitro [2]: 1.6 log
- reduction of P. aeruginosa adherent to titanium screws in vitro ([2]; coated titanium screws): 5.1 log
- PA adherence to titanium screws (in words) ([2]; coated titanium screws, in vitro, p<0.05): significantly reduced
- solubility [3]: 166000 µg/mL and 227000 µM
- ethanol solubility reported by Sigma ([4]; ethanol, vendor value): 50 mg/mL
- reported solubility in ethanol/alcohol (in words) [4]: freely soluble
- reduction of MRSA colonization of PTFE in vivo [5]: 3.8 log and 3.2 log
- reduction of MRSA colonization of silk suture in vivo [5]: 5.1 log
- reduction of MRSA colonization of titanium screws in vivo [5]: 2.2 log and 2.5 log
- reduction of P. aeruginosa colonization of PTFE in vivo [6]: 4.4 log and 3.3 log
- reduction of P. aeruginosa colonization of silk suture in vivo [6]: 0.6 log and 0.4 log
- reduction of P. aeruginosa colonization of titanium screws in vivo [6]: 0.5 log and 0.4 log

SMILES: C[C@H]1COc2c(N3CCN(C)CC3)c(F)cc3c(=O)c(C(=O)O)cn1c23 [Levofloxacin]
- reduction of MRSA adherent to PTFE in vitro [1]: 3.9 log
- reduction of MRSA adherent to PTFE in vitro ([1]; listed as levofloxacin): 5.7 log
- reduction of MRSA adherent to silk suture in vitro [1]: 5.2 log
- reduction of MRSA adherent to titanium screws in vitro [1]: 5.3 log
- reduction of MRSA adherent to titanium screws in vitro ([1]; listed as levofloxacin): 5.2 log
- reduction of P. aeruginosa adherent to PTFE in vitro ([2]; coated PTFE): 6.2 log
- reduction of P. aeruginosa adherent to PTFE in vitro ([2]; coated PTFE, listed as levofloxacin): 6.1 log
- reduction of P. aeruginosa adherent to silk suture in vitro [2]: 6.0 log
- reduction of P. aeruginosa adherent to titanium screws in vitro ([2]; coated titanium screws): 6.4 log
- reduction of MRSA colonization of PTFE in vivo [5]: 4.5 log and 3.7 log
- reduction of MRSA colonization of silk suture in vivo [5]: 5.1 log and 4.0 log
- reduction of MRSA colonization of titanium screws in vivo [5]: 3.3 log and 3.0 log
- reduction of P. aeruginosa colonization of PTFE in vivo [6]: 4.4 log and 3.7 log
- reduction of P. aeruginosa colonization of silk suture in vivo [6]: 3.9 log and 4.3 log
- reduction of P. aeruginosa colonization of titanium screws in vivo [6]: 4.0 log and 3.3 log
